# US8288142B2, “Hyaluronidase and method of use thereof” (priority 2007, dated 2012)
# Read-outs that look alike come from different tables or passages of the source.
# Key:
# [1] = system: microbial hyaluronidase; type: biochemical, Streptomyces actinocidus; conditions: for inhibition of hyaluronidase activity / effect on hyaluronidase: 10^−2 M; for inhibition of activity of microbial hyaluronidase: 10^−3 M; for effect on activity of microbial hyaluronidase: 10^−3-10^−4 M
# [2] = system: hyaluronidase derived from Stm. Hyalurolyticus; conditions: 10^−3-10^−4 M; Ohya 1970; cited from earlier work
Compound,Hyaluronidase activity (%) ([1]; reagent or salt 10^−2 M),Hyaluronidase activity (%) ([1]; reagent or salt 10^−3 M),Hyaluronidase activity (%) ([1]; reagent or salt 10^−4 M),Hyaluronidase activity (%) [1],inhibition of hyaluronidase activity [1],inhibition of activity of microbial hyaluronidase [1],effect on hyaluronidase derived from Stm. Hyalurolyticus [2],effect on activity of microbial hyaluronidase [1],effect on hyaluronidase [1]
O=[N+]([O-])[O-].[Ag+] [AgNO3],100%,100%,100%,,,,,,
[Ca+2].[Cl-].[Cl-] [CaCl2],100%,100%,100%,,,,,,
[Cl-].[Cl-].[Co+2] [CoCl2],,,,100%,,,,,
O=S(=O)([O-])[O-].[Cu+2] [CuSO4],44%,85%,100%,,56%,25%,,,
O=C(O)CN(CCN(CC(=O)O)CC(=O)O)CC(=O)O [EDTA],95%,100%,100%,,,,,,
[Cl][Fe]([Cl])[Cl] [FeCl3],35%,85%,100%,,65%,25%,,,
O=S(=O)([O-])[O-].[Fe+2] [FeSO4],100%,100%,100%,,,,,,
[Hg+2] [Hg^2+],,,,,,,inhibit,,
II [I2],0%,12%,,,,,,,
[Cl-].[K+] [KCl],100%,100%,100%,,,,,,
O=S(=O)([O-])[O-].[Li+].[Li+] [LiSO4],100%,100%,100%,,,,,,
[Cl][Mn][Cl] [MnCl2],100%,100%,100%,,,,inhibit,did not affect,
[N-]=[N+]=[N-].[Na+] [Na3N],100%,100%,100%,,,,,,
[Cl-].[Na+] [NaCl],100%,100%,100%,,,,,,
O=S(=O)([O-])[O-].[Zn+2] [ZnSO4],100%,100%,100%,,,,,,
OCCS [beta-Mercaptoethanol],0%,65%,100%,,,,,,completely inhibited
O=C(O)c1cc[c]([Hg][Cl])cc1 [para-Chloromercury-benzoate],80%,100%,100%,,,,inhibit,did not affect,partially inhibited
